Biological target: T1, mGlyT-1b (Mus musculus, UniProt P28571)
T1 construct: host or cells: Flp-in-CHO cells
T1 sequence (P28571 1-651 isoform P28571-2): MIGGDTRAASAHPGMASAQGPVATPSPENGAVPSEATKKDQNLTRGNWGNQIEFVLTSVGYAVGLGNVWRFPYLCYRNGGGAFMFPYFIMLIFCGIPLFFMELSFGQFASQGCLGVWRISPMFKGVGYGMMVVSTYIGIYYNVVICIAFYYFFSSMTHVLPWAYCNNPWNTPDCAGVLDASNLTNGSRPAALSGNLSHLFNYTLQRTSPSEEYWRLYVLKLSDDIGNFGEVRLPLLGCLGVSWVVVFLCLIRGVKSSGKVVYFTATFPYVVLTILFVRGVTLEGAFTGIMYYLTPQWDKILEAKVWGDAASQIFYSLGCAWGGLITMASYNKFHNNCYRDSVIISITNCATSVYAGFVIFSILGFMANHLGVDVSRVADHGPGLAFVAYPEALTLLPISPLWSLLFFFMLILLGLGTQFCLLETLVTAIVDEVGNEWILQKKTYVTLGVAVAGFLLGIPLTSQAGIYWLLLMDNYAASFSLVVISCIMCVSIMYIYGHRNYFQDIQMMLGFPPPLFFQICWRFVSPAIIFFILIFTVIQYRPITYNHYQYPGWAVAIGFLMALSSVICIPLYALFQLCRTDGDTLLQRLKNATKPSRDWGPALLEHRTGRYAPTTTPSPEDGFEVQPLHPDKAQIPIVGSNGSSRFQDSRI
Experiment: Glycine Uptake Inhibition Assay (mGlyT-1b)
Format: cell-based
Details: [3H]-glycine uptake inhibition at GlyT-1, Flp-in-CHO cells transfected with mGlyT-1b cDNA
Protocol: DMEM complete medium: Nutrient mixture F-12 (Gibco Life-technologies), fetal bovine serum (FBS) 5%, (Gibco life technologies), Penicillin/Streptomycin 1% (Gibco life technologies), Hygromycin 0.6 mg/ml (Gibco life technologies), Glutamine 1 mM Gibco life technologies)
Uptake buffer (UB): 150 mM NaCl, 10 mM Hepes-Tris, pH 7.4, 1 mM CaCl2, 2.5 mM KCl, 2.5 mM MgSO4, 10 mM (+) D-glucose. Flp-in™-CHO (Invitrogen Cat n^o R758-07) cells stably transfected with mGlyT1b cDNA.
Glycine Uptake Inhibition Assay (mGlyT-1b)
On day 1 mammalian cells, (Flp-in™-CHO), transfected with mGlyT-1b cDNA, were plated at the density of 40,000 cells/well in complete F-12 medium, without hygromycin in 96-well culture plates. On day 2, the medium was aspirated, and the cells were washed twice with uptake buffer (UB). The cells were then incubated for 20 min at 22° C. with either (i) no potential competitor, (ii) 10 mM non-radioactive glycine, (iii) a concentration of a potential inhibitor. A range of concentrations of the potential inhibitor was used to generate data for calculating the concentration of inhibitor resulting in 50% of the effect (e.g. IC50, the concentration of the competitor inhibiting glycine uptake of 50%).
A solution was then immediately added containing [^3H]-glycine 60 nM (11-16 Ci/mmol) and 25 μM non-radioactive glycine. The plates were incubated with gentle shaking, and the reaction was stopped by aspiration of the mixture and washing (three times) with ice-cold UB. The cells were lysed with scintillation liquid, shaken 3 hours and the radioactivity in the cells counted using a scintillation counter.

Question: CCC(C)Oc1ccc([N+](=O)[O-])cc1C(=O)N1CCN(c2ccc(C(F)(F)F)cc2)CC1 (racemic) [Example 78, Rac-(2-sec-Butoxy-5-nitro-phenyl)-[4-(4-trifluoromethyl-phenyl)-piperazin-1-yl]-methanone] was tested. Which IC50 did it give?
Answer: Its IC50 is 12 nM.

Question: How did the IC50 turn out when CC(Oc1ccc(S(C)(=O)=O)cc1C(=O)N1CCN(c2ccc(C(F)(F)F)cc2)CC1)C1CC1 (racemic) [Example 104, Rac-[2-(1-Cyclopropyl-ethoxy)-5-methanesulfonyl-phenyl]-[4-(4-trifluoromethyl-phenyl)-piperazin-1-yl]-methanone] was run?
Answer: The IC50 was 46 nM.

Question: How did the IC50 turn out when CC(Oc1ccc(S(C)(=O)=O)cc1C(=O)N1CCN(c2ccc(C#N)c(F)c2F)CC1)C(F)(F)F (racemic) [compound 207] was run?
Answer: Its IC50 is 23 nM.

Question: CC(Oc1ccc(S(C)(=O)=O)cc1C(=O)N1CCN(c2ccc(Cl)cc2C#N)CC1)C(F)(F)F (racemic) [compound 256] was tested. Which IC50 did it give?
Answer: The IC50 was 32 nM.

Question: How did the IC50 turn out when CC(Oc1ccc(S(C)(=O)=O)cc1C(=O)N1CCN(c2ccc(Cl)c(Cl)c2)CC1)C(F)(F)F (racemic) [compound 258] was run?
Answer: Its IC50 is 86 nM.

Question: How did the IC50 turn out when CC(Oc1ccc(S(C)(=O)=O)cc1C(=O)N1CCN(c2c(F)cc(C#N)cc2F)CC1)C(F)(F)F (racemic) [compound 260] was run?
Answer: The IC50 was 43 nM.

Question: How did the IC50 turn out when CC(Oc1ccc(S(C)(=O)=O)cc1C(=O)N1CCN(c2cc(F)c(C#N)cc2F)CC1)C(F)(F)F (racemic) [compound 261] was run?
Answer: The IC50 was 43 nM.

Question: With CC(Oc1ccc(S(C)(=O)=O)cc1C(=O)N1CCN(c2cc(F)c(C#N)c(F)c2)CC1)C(F)(F)F (racemic) [compound 262] as the molecule, how does the IC50 read?
Answer: Its IC50 is 42 nM.

Question: With CC(Oc1ccc(S(C)(=O)=O)cc1C(=O)N1CCN(c2ccc(C#N)cc2)CC1)C(F)(F)F (racemic) [compound 298] as the molecule, how does the IC50 read?
Answer: The IC50 was 21 nM.

Question: Which IC50 does the source give for CC(Oc1ccc(S(C)(=O)=O)cc1C(=O)N1CCN(c2ccc(C#N)cc2F)CC1)C(F)(F)F (racemic) [compound 299] here?
Answer: The IC50 was 44 nM.

Question: Which IC50 does the source give for CC(Oc1ccc(S(C)(=O)=O)cc1C(=O)N1CCN(c2ccc(C#N)c(F)c2)CC1)C(F)(F)F (racemic) [compound 300] here?
Answer: The IC50 was 16 nM.

Question: With CC(Oc1ccc(S(C)(=O)=O)cc1C(=O)N1CCN(c2ccc(C(F)(F)F)cc2F)CC1)C(F)(F)F (racemic) [compound 302] as the molecule, how does the IC50 read?
Answer: The IC50 was 13 nM.

Question: CC(Oc1ccc(S(C)(=O)=O)cc1C(=O)N1CCN(c2ccc(C(F)(F)F)c(F)c2)CC1)C(F)(F)F (racemic) [compound 303] was tested. Which IC50 did it give?
Answer: Its IC50 is 6 nM.

Question: For CCC(C)Oc1ccc(S(C)(=O)=O)cc1C(=O)N1CCN(c2ccc(C(C)=O)cc2F)CC1 (racemic) [compound 319], which IC50 is on record?
Answer: The IC50 was 31 nM.

Question: For CCC(C)Oc1ccc(S(C)(=O)=O)cc1C(=O)N1CCN(c2ccc(C#N)cc2F)CC1 (racemic) [compound 321], which IC50 is on record?
Answer: Its IC50 is 18 nM.

Question: Which IC50 does the source give for CCC(C)Oc1ccc(S(C)(=O)=O)cc1C(=O)N1CCN(c2ccc(C#N)c(F)c2)CC1 (racemic) [compound 322] here?
Answer: The IC50 was 28 nM.

Question: How did the IC50 turn out when CCC(C)Oc1ccc(S(C)(=O)=O)cc1C(=O)N1CCN(c2ccc(C(F)(F)F)cc2F)CC1 (racemic) [compound 324] was run?
Answer: The IC50 was 39 nM.

Question: Which IC50 does the source give for CCC(C)Oc1ccc(S(C)(=O)=O)cc1C(=O)N1CCN(c2ccc(C(F)(F)F)c(F)c2)CC1 (racemic) [compound 325] here?
Answer: The IC50 was 33 nM.

Question: Which IC50 does the source give for CC(Oc1ccc(S(C)(=O)=O)cc1C(=O)N1CCN(c2ncc(C(F)(F)F)cc2Cl)CC1)C(F)(F)F (racemic) [compound 407] here?
Answer: Its IC50 is 27 nM.

Question: For CC(Oc1ccc(S(C)(=O)=O)cc1C(=O)N1CCN(c2ccc(C(F)(F)F)cn2)CC1)C(F)(F)F (racemic) [compound 408], which IC50 is on record?
Answer: The IC50 was 37 nM.

Question: CC(Oc1ccc(S(C)(=O)=O)cc1C(=O)N1CCN(c2ccc(Br)cn2)CC1)C(F)(F)F (racemic) [compound 435] was tested. Which IC50 did it give?
Answer: The IC50 was 29 nM.

Question: CC(Oc1ccc(S(C)(=O)=O)cc1C(=O)N1CCN(c2ncc(C(F)(F)F)cc2F)CC1)C(F)(F)F (racemic) [compound 438] was tested. Which IC50 did it give?
Answer: Its IC50 is 47 nM.

Question: How did the IC50 turn out when CC(Oc1ccc(S(C)(=O)=O)cc1C(=O)N1CCN(c2cccc(C(F)(F)F)n2)CC1)C(F)(F)F (racemic) [compound 459] was run?
Answer: Its IC50 is 40 nM.

Question: Which IC50 does the source give for C[C@H](Oc1ccc(S(C)(=O)=O)cc1C(=O)N1CCN(c2ncc(C(F)(F)F)cc2F)CC1)C(F)(F)F (racemic) [compound 470] here?
Answer: The IC50 was 30 nM.

Question: How did the IC50 turn out when CNS(=O)(=O)c1ccc(OC(C)C(F)(F)F)c(C(=O)N2CCN(c3ccc(C(F)(F)F)cc3)CC2)c1 (racemic) [compound 554] was run?
Answer: The IC50 was 19 nM.

Question: With CNS(=O)(=O)c1ccc(OC(C)C(F)(F)F)c(C(=O)N2CCN(c3cc(F)c(C#N)cc3F)CC2)c1 (racemic) [compound 557] as the molecule, how does the IC50 read?
Answer: The IC50 was 42 nM.

Question: CNS(=O)(=O)c1ccc(OC(C)C(F)(F)F)c(C(=O)N2CCN(c3ccc(C#N)c(F)c3F)CC2)c1 (racemic) [compound 558] was tested. Which IC50 did it give?
Answer: Its IC50 is 29 nM.

Question: With CCC(C)Oc1ccc(S(C)(=O)=O)cc1C(=O)N1CCN(c2ccc(S(=O)(=O)CC)cc2F)CC1 (racemic) [compound 568] as the molecule, how does the IC50 read?
Answer: Its IC50 is 44 nM.

Question: For CC(Oc1ccc(S(C)(=O)=O)cc1C(=O)N1CCN(c2ccc(C(F)(F)F)cn2)CC1)C(F)(F)F (single isomer, unassigned) [compound 464], which IC50 is on record?
Answer: Its IC50 is 20 nM.

Question: CC(Oc1ccc(S(C)(=O)=O)cc1C(=O)N1CCN(c2ccc(C(F)(F)F)cn2)CC1)C(F)(F)F (single isomer, unassigned) [compound 465] was tested. Which IC50 did it give?
Answer: Its IC50 is 40 nM.

Question: How did the IC50 turn out when CC(Oc1ccc(S(C)(=O)=O)cc1C(=O)N1CCN(c2ccc(C(F)(F)F)cc2F)CC1)C(F)(F)F (single isomer, unassigned) [compound 466] was run?
Answer: Its IC50 is 26 nM.

Question: With CC(Oc1ccc(S(C)(=O)=O)cc1C(=O)N1CCN(c2ccc(C(F)(F)F)cc2)CC1)C(F)(F)F (single isomer, unassigned) [compound 468] as the molecule, how does the IC50 read?
Answer: The IC50 was 20 nM.

Question: For CC(Oc1ccc(S(C)(=O)=O)cc1C(=O)N1CCN(c2ccc(C(F)(F)F)cc2)CC1)C(F)(F)F (single isomer, unassigned) [compound 469], which IC50 is on record?
Answer: The IC50 was 20 nM.

Question: For CC(=O)c1ccc(N2CCN(C(=O)c3cc(S(C)(=O)=O)ccc3OC(C)C)CC2)c(F)c1 [Example 1, 1-{3-fluoro-4-[4-(2-isopropoxy-5-methanesulfonyl-benzoyl)-piperazin-1-yl]-phenyl}-ethanone], which IC50 is on record?
Answer: The IC50 was 39 nM.

Question: How did the IC50 turn out when CC(C)Oc1ccc(S(C)(=O)=O)cc1C(=O)N1CCN(c2ccc(C(F)(F)F)cc2F)CC1 [Example 5, [4-(2-fluoro-4-trifluoromethyl-phenyl)-piperazin-1-yl]-(2-isopropoxy-5-methanesulfonyl-phenyl)-methanone] was run?
Answer: The IC50 was 12 nM.

Question: Which IC50 does the source give for CC(=O)c1ccc(N2CCN(C(=O)c3cc(S(C)(=O)=O)ccc3OCC3CC3)CC2)c(F)c1 [Example 15, 1-{4-[4-(2-cyclopropylmethoxy-5-methanesulfonyl-benzoyl)-piperazin-1-yl]-3-fluoro-phenyl}-ethanone] here?
Answer: Its IC50 is 15 nM.

Question: With CS(=O)(=O)c1ccc(OCC(F)(F)F)c(C(=O)N2CCN(c3ccc(C(F)(F)F)cc3F)CC2)c1 [Example 28, [4-(2-fluoro-4-trifluoromethyl-phenyl)-piperazin-1-yl]-[5-methanesulfonyl-2-(2,2,2-trifluoro-ethoxy)-phenyl]-methanone] as the molecule, how does the IC50 read?
Answer: The IC50 was 12 nM.

Question: Which IC50 does the source give for COCCOc1ccc([N+](=O)[O-])cc1C(=O)N1CCN(c2ccc(C(C)=O)cc2F)CC1 [Example 54, 1-(3-Fluoro-4-{4-[2-(2-methoxy-ethoxy)-5-nitro-benzoyl]-piperazin-1-yl}-phenyl)-ethanone] here?
Answer: Its IC50 is 50 nM.

Question: With CC(C)Oc1ccc([N+](=O)[O-])cc1C(=O)N1CCN(c2ccc(C(F)(F)F)cc2)CC1 [Example 62, (2-Isopropoxy-5-nitro-phenyl)-[4-(4-trifluoromethyl-phenyl)-piperazin-1-yl]-methanone] as the molecule, how does the IC50 read?
Answer: Its IC50 is 17 nM.

Question: Which IC50 does the source give for O=C(c1cc([N+](=O)[O-])ccc1OCC1CC1)N1CCN(c2ccc(C(F)(F)F)cc2)CC1 [Example 63, (2-Cyclopropylmethoxy-5-nitro-phenyl)-[4-(4-trifluoromethyl-phenyl)-piperazin-1-yl]-methanone] here?
Answer: Its IC50 is 28 nM.

Question: Which IC50 does the source give for O=C(c1cc([N+](=O)[O-])ccc1OCC1CCC1)N1CCN(c2ccc(C(F)(F)F)cc2)CC1 [Example 64, (2-Cyclobutylmethoxy-5-nitro-phenyl)-[4-(4-trifluoromethyl-phenyl)-piperazin-1-yl]-methanone] here?
Answer: Its IC50 is 25 nM.
